Laboratory results as given in patent US20240156785A1, “COMPOSITION FOR IMPROVING BLOOD CHOLESTEROL LEVEL” (SUNTORY HOLDINGS LIMITED, priority 2021, published 2024).

Key:
[1] = tested on: HDL cholesterol and LDL cholesterol in the blood; assay: Blood cholesterol evaluation study on human (placebo-controlled, randomized, double-blind, parallel-group); type: in vivo; settings: human adults, one capsule (20 mg L-ergothioneine) per day orally for four weeks, week 4 vs pre-testing, compared with control food group
Procedure: In order to evaluate the influence of supplements containing ergothioneine on human blood cholesterol levels, a placebo-controlled, randomized, double-blind, parallel-group study was conducted on subjects including male and female adults (46 subjects in a test food group; 46 subjects in a control food group; 92 subjects in total). In this study, one capsule containing 20 mg ergothioneine (test food) or one capsule not containing ergothioneine (control food) was fed per day for four weeks. The blood cholesterol levels of the subjects were measured for pre-testing before starting the study (before starting ingestion of the test food or control food). After ingestion of the test food or control food for four weeks, the blood cholesterol levels of the subjects were measured again (testing on week 4). The cholesterol measured includes HDL cholesterol and LDL cholesterol. […] The ratio of LDL cholesterol level to HDL cholesterol level (LDL/HDL ratio) in the blood was determined for each subject from the measurements (mg/dL) of HDL cholesterol and LDL cholesterol. […] For each group, the amount of changes in LDL/HDL ratio (Δ in LDL/HDL ratio) from the time of pre-testing was determined by subtracting the LDL/HDL ratio at the time of pre-testing from the LDL/HDL ratio at the time of testing on week 4 ((LDL/HDL ratio at the time of testing on week 4)—(LDL/HDL ratio at the time of pre-testing)). […]

[2] = tested on: triglyceride (neutral fat) level in plasma; settings: mice, oral administration, compared with mice not orally administered with ergothioneine; cited from earlier work

SMILES: C[N+](C)(C)[C@@H](Cc1c[nH]c(=S)[nH]1)C(=O)[O-] [L-ergothioneine]
- changes in HDL cholesterol level (Δ in HDL cholesterol) in the blood [1]: increased
- changes in LDL/HDL ratio (Δ in LDL/HDL ratio) in the blood [1]: reduced
- triglyceride (neutral fat) level in plasma [2]: lower
